Laboratory results taken from PubChem BioAssay (NCI).
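A five-concentration, 48-hour dose response in 96-well plates underlies each endpoint, interpolated linearly between surrounding concentrations. Abbreviation: GI50, concentration required for 50% inhibition of growth. TGI is the concentration that stops growth completely.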

What was measured:
Assay in all cases: inhibition of tumour cell growth, NCI panel, 48 h
[1] = system: COLO 205 colon
[2] = system: SK-MEL-2 melanoma
[3] = system: UO-31 renal
[4] = system: ACHN renal
[5] = system: MOLT-4 leukemia
[6] = system: CAKI-1 renal
[7] = system: HCT-15 colon
[8] = system: HS 578T breast
[9] = system: OVCAR-3 ovarian
[10] = system: UACC-62 melanoma
[11] = system: SF-295 CNS
[12] = system: MCF7 breast
[13] = system: LOX IMVI melanoma
[14] = system: HT29 colon
[15] = system: HCC-2998 colon
[16] = system: OVCAR-8 ovarian
[17] = system: SNB-19 CNS
[18] = system: SR leukemia
[19] = system: RXF 393 renal
[20] = system: NCI-H522 lung
[21] = system: BT-549 breast
[22] = system: OVCAR-5 ovarian
[23] = system: IGROV1 ovarian
[24] = system: NCI-H23 lung
[25] = system: SK-OV-3 ovarian
[26] = system: TK-10 renal
[27] = system: SNB-75 CNS
[28] = system: DU-145 prostate
[29] = system: MDA-MB-231 breast
[30] = system: U251 CNS
[31] = system: NCI/ADR-RES ovarian
[32] = system: UACC-257 melanoma
[33] = system: PC-3 prostate
[34] = system: SF-268 CNS
[35] = system: K-562 leukemia
[36] = system: HL-60(TB) leukemia
[37] = system: M14 melanoma
[38] = system: 786-0 renal
[39] = system: CCRF-CEM leukemia
[40] = system: HOP-92 NSCLC
[41] = system: KM12 colon
[42] = system: RPMI-8226 leukemia
[43] = system: A549 NSCLC
[44] = system: HOP-62 NSCLC
[45] = system: SK-MEL-5 melanoma
[46] = system: SN12C renal
[47] = system: MDA-MB-435
[48] = system: OVCAR-4 ovarian
[49] = system: MALME-3M melanoma
[50] = system: NCI-H226 lung
[51] = system: SF-539 CNS
[52] = system: T-47D breast
[53] = system: EKVX NSCLC
[54] = system: A498 renal
[55] = system: SW-620 colon
[56] = system: NCI-H460 lung
[57] = system: SK-MEL-28 melanoma
[58] = system: HCT-116 colon

For `COc1ccc(-n2c(N)c(C#N)c(C#N)c2-c2cccc([N+](=O)[O-])c2)cc1`, the TGI [1] was over 100000 nM, the TGI [2] was 8680 nM and the TGI [3] was over 100000 nM. It also gave a TGI [4] of over 100000 nM, a TGI [5] of 44800 nM and a TGI [6] of over 100000 nM. The TGI [7] was over 100000 nM, the TGI [8] was over 100000 nM and the TGI [9] was over 100000 nM. The TGI [10] was over 100000 nM, the TGI [11] was over 100000 nM and the TGI [12] was over 100000 nM. It also gave a TGI [13] of over 100000 nM, a TGI [14] of over 100000 nM and a TGI [15] of over 100000 nM. The TGI [16] was over 100000 nM, the TGI [17] was over 100000 nM and the TGI [18] was over 100000 nM. It also gave a TGI [19] of 65100 nM, a TGI [20] of over 100000 nM and a TGI [21] of over 100000 nM. For the same compound, the TGI [22] was over 100000 nM, the TGI [23] was over 100000 nM and the TGI [24] was over 100000 nM. For the same compound, the TGI [25] was over 100000 nM, the TGI [26] was over 100000 nM and the TGI [27] was over 100000 nM. It also gave a TGI [28] of over 100000 nM, a TGI [29] of over 100000 nM and a TGI [30] of over 100000 nM. For the same compound, the TGI [31] was over 100000 nM, the TGI [32] was over 100000 nM and the TGI [33] was over 100000 nM. For the same compound, the TGI [34] was over 100000 nM, the TGI [35] was over 100000 nM and the TGI [36] was over 100000 nM. For the same compound, the TGI [37] was over 100000 nM, the TGI [38] was over 100000 nM and the TGI [39] was over 100000 nM. It also gave a TGI [40] of over 100000 nM, a TGI [41] of over 100000 nM and a TGI [42] of over 100000 nM. It also gave a TGI [43] of 68700 nM, a TGI [44] of over 100000 nM and a TGI [45] of over 100000 nM. For the same compound, the TGI [46] was over 100000 nM, the TGI [47] was over 100000 nM and the TGI [48] was over 100000 nM. It also gave a TGI [49] of over 100000 nM, a TGI [50] of over 100000 nM and a TGI [51] of over 100000 nM. It also gave a TGI [52] of over 100000 nM, a TGI [53] of over 100000 nM and a TGI [54] of over 100000 nM. It also gave a TGI [55] of over 100000 nM.

`O=C(c1ccccc1)c1c(C(F)(F)F)n([O-])c2ccc(F)cc2[n+]1=O` showed a GI50 [1] of 383 nM, a TGI [1] of 926 nM and a GI50 [2] of 1470 nM. It also gave a TGI [2] of 3350 nM, a GI50 [3] of 1380 nM and a TGI [3] of 2740 nM. The GI50 [4] was 1090 nM, the TGI [4] was 2340 nM and the GI50 [5] was 362 nM. The TGI [5] was 1480 nM, the GI50 [6] was 1500 nM and the TGI [6] was 2850 nM. For the same compound, the GI50 [7] was 260 nM, the TGI [7] was 758 nM and the GI50 [8] was 1440 nM. The TGI [8] was 5080 nM, the GI50 [9] was 501 nM and the TGI [9] was 1570 nM. The GI50 [10] was 882 nM, the TGI [10] was 2180 nM and the GI50 [11] was 1760 nM. For the same compound, the TGI [11] was 3480 nM, the GI50 [12] was 373 nM and the TGI [12] was 1670 nM. It also gave a GI50 [13] of 167 nM, a TGI [13] of 317 nM and a GI50 [14] of 502 nM. It also gave a TGI [14] of 1790 nM, a GI50 [15] of 773 nM and a TGI [15] of 1900 nM. For the same compound, the GI50 [17] was 1870 nM, the TGI [17] was 4010 nM and the GI50 [18] was 95.7 nM. It also gave a GI50 [19] of 434 nM, a TGI [19] of 1450 nM and a GI50 [56] of 663 nM. For the same compound, the TGI [56] was 2290 nM, the GI50 [20] was 911 nM and the TGI [20] was 2590 nM. The GI50 [21] was 252 nM, the TGI [21] was 788 nM and the GI50 [22] was 1750 nM. The TGI [22] was 4130 nM, the GI50 [23] was 517 nM and the TGI [23] was 1980 nM. The GI50 [24] was 980 nM, the TGI [24] was 2590 nM and the GI50 [25] was 1890 nM. It also gave a TGI [25] of 3390 nM, a GI50 [26] of 1630 nM and a TGI [26] of 3180 nM. It also gave a GI50 [27] of 1360 nM, a TGI [27] of 2650 nM and a GI50 [28] of 1300 nM. For the same compound, the TGI [28] was 2570 nM, the GI50 [29] was 662 nM and the TGI [29] was 1630 nM. The GI50 [30] was 1070 nM, the TGI [30] was 2260 nM and the GI50 [31] was 1780 nM. It also gave a TGI [31] of 4810 nM, a GI50 [32] of 1540 nM and a TGI [32] of 3230 nM. The GI50 [33] was 252 nM, the TGI [33] was 828 nM and the GI50 [34] was 945 nM. It also gave a TGI [34] of 2400 nM, a GI50 [35] of 348 nM and a TGI [35] of 1770 nM. The GI50 [36] was 188 nM, the TGI [36] was 869 nM and the GI50 [37] was 1280 nM. It also gave a TGI [37] of 2670 nM, a GI50 [38] of 1240 nM and a TGI [38] of 2520 nM. For the same compound, the GI50 [39] was 349 nM, the TGI [39] was over 100000 nM and the GI50 [40] was 211 nM. The TGI [40] was 394 nM, the GI50 [41] was 872 nM and the TGI [41] was 2470 nM. For the same compound, the GI50 [42] was 551 nM, the TGI [42] was 1930 nM and the GI50 [43] was 749 nM. For the same compound, the TGI [43] was 2970 nM, the GI50 [44] was 1340 nM and the TGI [44] was 2710 nM. It also gave a GI50 [45] of 778 nM, a TGI [45] of 2180 nM and a GI50 [46] of 1020 nM. For the same compound, the TGI [46] was 2570 nM, the GI50 [47] was 1300 nM and the TGI [47] was 2660 nM. The GI50 [49] was 1370 nM, the TGI [49] was 3040 nM and the GI50 [57] was 1100 nM. For the same compound, the TGI [57] was 2320 nM, the GI50 [50] was 1550 nM and the TGI [50] was 3020 nM. It also gave a GI50 [51] of 1440 nM, a TGI [51] of 2880 nM and a GI50 [52] of 655 nM. The TGI [52] was 2510 nM, the GI50 [53] was 992 nM and the TGI [53] was 2440 nM. It also gave a GI50 [54] of 2380 nM, a TGI [54] of 6040 nM and a GI50 [58] of 307 nM. For the same compound, the TGI [58] was 1020 nM, the GI50 [55] was 147 nM and the TGI [55] was 306 nM.
